The text below walks through data of ChEMBL document CHEMBL1137661, “Interaction study of the combined use of paroxetine and fosamprenavir-ritonavir in healthy subjects” (Antimicrob Agents Chemother, 2007).

Data set [1] concerns Homo sapiens. Description: Half life in human assessed as amprenavir levels at 700 mg, po bid for 10 days pretreated with paroxetin at 20 mg, po qd for 10 days followed by 16 days washout period then coadministered with paroxetin at 20 mg, po qd and ritonavir at 100 mg, po bid for 10 days. The format is ADME, organism-based. The note with it: in vivo.
Data set [2] deals with Homo sapiens. Description: AUC (0 to 12 hrs) in human assessed as amprenavir levels at 700 mg, po bid for 10 days pretreated with paroxetin at 20 mg, po qd for 10 days followed by 16 days washout period then coadministered with paroxetin at 20 mg, po qd and ritonavir at 100 mg, po bid for 10 days. Also noted: time < 12 hr, dose 700 mg, route oral. The conditions noted are these: in vivo. The format is ADME, organism-based, Plasma.

For data set [3], the system named is Homo sapiens. Description: Toxicity in human assessed as serious adverse events at 20 mg, po qd for 10 days followed by 16 days washout period and treated with 20 mg, po qd for 10 days coadministered with fosamprenavir at 700 mg, po bid and ritonavir at 100 mg, po bid. The conditions noted are these: in vivo. The class given is organism-based.
A short description of data set [4]: Apparent oral clearance in human at 20 mg, po qd for 10 days. The class given is ADME, organism-based. The conditions noted are these: in vivo.
In data set [5] the test system is Homo sapiens. Description: Decrease in serotonin concentration in human platelets at 20 mg, po qd for 10 days followed by 16 days washout period and treated with 20 mg, po qd for 10 days coadministered with fosamprenavir at 700 mg, po bid and ritonavir at 100 mg, po bid relative to control. The format is functional. Also noted: scale not given: the % may be the effect or the level left.

A short description of data set [6]: Cmax in human at 20 mg, po qd for 10 days. The format is ADME, organism-based. Details: dose 20 mg, route oral. The conditions noted are these: in vivo.
The nature of data set [7]: Apparent volume of distribution in human. The format is ADME, organism-based. The note with it: in vivo, read-out: Vz.
Data set [8] is described as follows: Half life in human at 20 mg, po qd for 10 days. The format is ADME, organism-based. The conditions noted are these: in vivo.
Data set [9] has as its system Homo sapiens. Description: Decrease in serotonin concentration in human platelets at 20 mg, po qd for 10 days relative to control. The class given is functional. Also noted: scale not given: the % may be the effect or the level left.
A short description of data set [10]: Cmax in human at 20 mg, po qd for 10 days followed by 16 days washout period and treated with 20 mg, po qd for 10 days coadministered with fosamprenavir at 700 mg, po bid and ritonavir at 100 mg, po bid. The format is ADME, organism-based. The note with it: in vivo. Details: dose 20 mg, route oral.
Data set [11] can be described thus: AUC (0 to 24 hrs) in human at 20 mg, po qd for 10 days followed by 16 days washout period and treated with 20 mg, po qd for 10 days coadministered with fosamprenavir at 700 mg, po bid and ritonavir at 100 mg, po bid. Details: dose 20 mg, time < 24 hr, route oral. The format is ADME, organism-based. The conditions noted are these: plasma.
Data set [12] is described as follows: AUC (0 to 24 hrs) in human at 20 mg, po qd for 10 days. The format is ADME, organism-based. Details: time < 24 hr, dose 20 mg, route oral. The conditions noted are these: plasma.
Data set [13] deals with Homo sapiens. Kind of data set: Toxicity in human assessed as serious adverse events at 20 mg, po qd for 10 days. The class given is organism-based. The note with it: in vivo, 240 h.
Data set [14] is described as follows: Half life in human at 20 mg, po qd for 10 days followed by 16 days washout period and treated with 20 mg, po qd for 10 days coadministered with fosamprenavir at 700 mg, po bid and ritonavir at 100 mg, po bid. The format is ADME, organism-based. The conditions noted are these: in vivo.
A short description of another data set: clinical. The conditions noted are these: human, in vivo, po.
A short description of data set [15]: AUC (0 to 12 hrs) in human at 100 mg, po bid for 10 days pretreated with paroxetin at 20 mg, po qd for 10 days followed by 16 days washout period then coadministered with paroxetin at 20 mg, po qd and fosamprenavir at 700 mg, po bid for 10 days. Also noted: time < 12 hr, dose 100 mg, route oral. The format is ADME, organism-based. The note with it: plasma.

Description for clinical: Half life in human at 100 mg, po bid for 10 days pretreated with paroxetin at 20 mg, po qd for 10 days followed by 16 days washout period then coadministered with paroxetin at 20 mg, po qd and fosamprenavir at 700 mg, po bid for 10 days

With `CC(C)CN(C[C@@H](O)[C@H](Cc1ccccc1)NC(=O)O[C@H]1CCOC1)S(=O)(=O)c1ccc(N)cc1` [AMPRENAVIR], in the data set on Homo sapiens [1], the t1/2 was found to be 11.5 h. Besides, in the data set with Homo sapiens [2], the exposure (AUC) (usually the area under the concentration-time curve, a measure of exposure) was 44100 ng·h/mL.

Regarding `Fc1ccc([C@@H]2CCNC[C@H]2COc2ccc3c(c2)OCO3)cc1` [PAROXETINE], the Activity result is recorded as “Non-toxic” in the data set on Homo sapiens [3], 81% in the data set on Homo sapiens [5], 87% with Homo sapiens [9] and “Non-toxic” in the data set with Homo sapiens [13]. The CL/F (in general, the apparent clearance, not corrected for the fraction that reaches the circulation) in data set [4] was 552 mL/min. In addition, the Cmax (usually the highest concentration seen after dosing) in data set [6] was determined as 34 ng/mL; in data set [10], 17 ng/mL. Moreover, the Vd in [7] came out at 8.7 L/kg. Besides, the values for the half-life in data set [8] and in data set [14] were 21.1 h and 15.9 h, respectively. In addition, the AUC at 24 h in [11] stood at 270 ng·h/mL; in data set [12], 590 ng·h/mL.

With `CC(C)c1nc(CN(C)C(=O)N[C@H](C(=O)N[C@@H](Cc2ccccc2)C[C@H](O)[C@H](Cc2ccccc2)NC(=O)OCc2cncs2)C(C)C)cs1` [RITONAVIR], the half-life – broadly, the time in which the quantity being followed falls by half – in “clinical” is 4.1 h. In data set [15], the AUC at 12 h came to 5100 ng·h/mL.
